Inconclusive results are not listed.
What follows are molecules tested against Virion infectivity factor (Human immunodeficiency virus type 1 group M subtype B (isolate BH10)) + Virion infectivity factor (Human immunodeficiency virus type 1 group M subtype B (isolate BRU/LAI)) + Virion infectivity factor (Human immunodeficiency virus type 1 group M subtype B (isolate PCV12)) + Virion infectivity factor (Human immunodeficiency virus type 1 group M subtype B (isolate HXB2)) + DNA dC->dU-editing enzyme APOBEC-3G (Homo sapiens) (UniProt P69720+P69721+P69722+P69723+Q9HC16) (assay: inhibitors of Vif binding to APOBEC3G peptide, primary screen, biochemical, TR-FRET, GST-Vif 1-94, biotin-A3G peptide, dose response retest (AID 1117319);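 further: Vif residues 1-94 fused to GST binding biotinylated APOBEC3G peptide 110-148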).
Cc1[nH]c2ccccc2c1C(=O)Cn1c(=O)oc2ccccc21 gave an IC50 of 96.2 µM. In the case of O=S(=O)(O)c1cc(O)c2ccc(Nc3ccccc3)cc2c1, the IC50 is reported as 1.38 µM. Molecule N#Cc1ccccc1CN1C(=O)S/C(=C/c2cccn2-c2cccc(C(=O)O)c2)C1=O has an IC50 of 18.5 µM. NC(=O)C1CCN(C2=C(Cl)C(=O)c3ccccc3C2=O)CC1 showed an IC50 of 2.5 µM. CC(=O)Nc1ccc(S(=O)(=O)Nc2nc3ccccc3nc2Nc2ccc(C(=O)O)c(O)c2)cc1 was tested, and the IC50 was 17.4 µM. Work on CCNc1ccc(Br)cc(C(=O)/C=C/c2ccc3c(c2)OCO3)c1=O yielded an IC50 of 24.7 µM. O=C(COc1ccc(S(=O)(=O)N2CCCC2)cc1)NCCC1=CCCCC1 was tested, and the IC50 was 75.1 µM. For CCOC(=O)C(=O)Cc1cccnn1, the IC50 was 0.65 µM. Work on O=C1NC(c2cccc(Br)c2)=N/C1=C\c1ccco1 yielded an IC50 of 9.01 µM. CCOc1cccc(=O)c2c(C)n(Cc3ccco3)c(C)c12 gave an IC50 of 0.45 µM. Cc1cc(C)cc(NC(=O)CSc2nc3c(c(=O)n2C)SC(C)C3)c1 (stereo not drawn) showed an IC50 of 21.8 µM. Molecule Cc1ccc(Nc2cnn(C34CC5CC(CC(CC(=O)O)(C5)C3)C4)c(=O)c2Cl)cc1C has an IC50 of 96.6 µM. O=C1CC(Nc2ccc(N3CCOCC3)cc2)C(=O)N1Cc1ccccc1 (stereo not drawn) was tested, and the IC50 was 2.29 µM. CCCCn1c(O)c(C(CC)=NCCN2CCCCC2)c(=O)[nH]c1=O showed an IC50 of 4.09 µM. CCN(CC)C(=O)c1ccc2c(c1)C1C=CCC1C(C(=O)O)N2 (stereo not drawn) gave an IC50 of 2.81 µM. NS(=O)(=O)c1ccc2c(c1)C1C=CCC1C(C1CC=CCC1)N2 (stereo not drawn) gave an IC50 of 3.42 µM. With N#CC1=C(N)OC2=C(CCC/C2=C/c2ccoc2)C1c1ccoc1 (stereo not drawn) the IC50 was 2.64 µM. Work on CC[n+]1c(/C=C2/C=C(C)CC(C)(C)C2)sc2ccc(OC)cc21 yielded an IC50 of 21.7 µM. In the case of CC1(OC(=O)CCc2ccccc2)C(=O)C=C2C=C(c3ccsc3)OC=C2C1=O (stereo not drawn), the IC50 is reported as 4.73 µM. Molecule Cc1cc(NC(=O)Cc2cccs2)no1 has an IC50 of 3.92 µM. In the case of Oc1ccc(NCc2cccc(OCc3ccccc3)c2)cc1, the IC50 is reported as 2.14 µM. COC(=O)c1ccc(COc2ccc(/C=N/Nc3cccc(C(=O)O)c3)cc2)cc1 showed an IC50 of 63.2 µM. Molecule Nc1ccc(N2CCN(Cc3ccccc3Cl)CC2)c(Cl)c1 has an IC50 of 85.1 µM. C=CCn1c(SCC(=O)c2cc(C)n(C(C)COC)c2C)nc2sc(C)c(C)c2c1=O (stereo not drawn) gave an IC50 of 27.1 µM. Cc1nc2cc(NC(=O)Nc3ccc(N4CCOCC4)cc3)ccc2n1C gave an IC50 of 99.2 µM. Work on COc1ccc(NC(=O)CCCSc2ccccc2)cc1 yielded an IC50 of 47.3 µM. Cc1ccc(Cl)cc1N1CCN(C(=O)COc2ccc3c(c2)CCC3)CC1 was tested, and the IC50 was 45.4 µM. Molecule CN(C1=C(NC(=O)c2ccc(Cl)cc2)C(=O)c2ccccc2C1=O)c1ccccc1 has an IC50 of 52.4 µM. CCOC(=O)C1CCCN(C(=O)c2ccc(CNc3c(N4CCC(C)CC4)c(=O)c3=O)cc2)C1 (stereo not drawn) was tested, and the IC50 was 31.4 µM. In the case of O=c1nc2s/c(=C\c3ccco3)c(=O)n2nc1Cc1ccccc1, the IC50 is reported as 4.18 µM. Molecule O=C(O)C1Nc2c(Cl)cc(Cl)c(Cl)c2C2C=CCC12 (stereo not drawn) has an IC50 of 30 µM. COC/C=C/C1=CC2=CC(=O)C(C)(OC(=O)c3cnc4ccccc4n3)C(=O)C2=CN1c1ccccc1 (stereo not drawn) was tested, and the IC50 was 2.74 µM. With Cc1ccc(Nc2nc(C(=O)NCc3ccco3)cs2)cc1 the IC50 was 78.2 µM. Work on COc1cc(CC(=O)OCC(=O)Nc2cccc([N+](=O)[O-])c2)cc(OC)c1OC yielded an IC50 of 11.8 µM. Oc1ccccc1/C=N/c1c(-c2ccco2)nc2ccccn12 gave an IC50 of 0.48 µM. O=C1NC(=S)N(c2ccc(F)cc2)C(=O)/C1=C\c1ccoc1 was tested, and the IC50 was 18.8 µM. O=C(O)c1cccc(CSc2nnc(COc3ccccc3)o2)c1 was tested, and the IC50 was 88.2 µM. For Cc1ccc(C=C2C(Cl)=C(Cl)C(Cl)=C2Cl)cc1, the IC50 was 2.1 µM. COc1cc(N(C)C)ccc1C=c1c2ccccc2n2c1cc(-c1ccccc1)[n+]2C showed an IC50 of 5.33 µM. O=C(COC(=O)c1cc(-c2ccco2)nc2ccccc12)NCc1ccc2c(c1)OCO2 showed an IC50 of 12.5 µM. In the case of Cc1ccc(N2CCN(c3ccc(C)cc3)C2c2ccccn2)cc1, the IC50 is reported as 75.8 µM. Work on O=C(Nc1ccc(F)cc1F)c1noc2c1CCC2 yielded an IC50 of 12.8 µM. Work on O=C(O)CCCN1C(=O)/C(=C\C(Cl)=C\c2ccccc2)SC1=S yielded an IC50 of 2.45 µM. Molecule Cc1nc2ccc(NC(=O)Cc3cccs3)cc2s1 has an IC50 of 84 µM. In the case of N#CC(C(=O)NCc1ccco1)c1nc2ccccc2nc1N1CCOCC1 (stereo not drawn), the IC50 is reported as 51.7 µM. With O=C(O)Cc1cccc(=O)c(O)c1C(=O)O the IC50 was 8.19 µM. Cc1ccc(/C=C2\SC(=S)N(c3cccnc3)C2=O)o1 showed an IC50 of 6.87 µM. COc1ccccc1NCCC(=O)OCC(=O)NCc1ccco1 gave an IC50 of 13.9 µM. Work on CC(=O)c1sc(C(=O)O)c(-c2ccco2)c1-c1ccco1 yielded an IC50 of 9.78 µM. Work on Cn1c(N)c(C(=O)COC(=O)C2CCCCC2)c(=O)n(C)c1=O yielded an IC50 of 92.9 µM. In the case of CC(C)c1ccc(N2C(=O)NC(=O)/C(=C\C=C\c3ccco3)C2=O)cc1, the IC50 is reported as 9.35 µM. COc1cc(C(=O)NCC(c2ccco2)N2CCCC2)ccc1OCc1c(C)noc1C (stereo not drawn) gave an IC50 of 99.2 µM. In the case of O=C1C=C(Nc2cccc3cccnc23)c2ccccc2C1=O, the IC50 is reported as 22.8 µM.
